# Data reported in ChEMBL document CHEMBL5154914, “Discovery of Pentacyclic Triterpenoid PROTACs as a Class of Effective Hemagglutinin Protein Degraders” (J Med Chem, 2022).
# Calls of active or inactive are those of the source. The calls are words filed in the database; no cut-off is given here.
# Assays:
# [1] = target: T1, von Hippel-Lindau disease tumor suppressor/Hemagglutinin (Homo sapiens, UniProt P03452+P40337); assay: Protac activity at VHL (unknown origin)/influenza A hemagglutinin transfected in HEK293T cells assessed as degradation of hemagglutinin at 33 uM incubated for 24 hrs by Western blot analysis relative to control; type: cell-based
# Target sequence in this assay (P03452 whole entry, looked up): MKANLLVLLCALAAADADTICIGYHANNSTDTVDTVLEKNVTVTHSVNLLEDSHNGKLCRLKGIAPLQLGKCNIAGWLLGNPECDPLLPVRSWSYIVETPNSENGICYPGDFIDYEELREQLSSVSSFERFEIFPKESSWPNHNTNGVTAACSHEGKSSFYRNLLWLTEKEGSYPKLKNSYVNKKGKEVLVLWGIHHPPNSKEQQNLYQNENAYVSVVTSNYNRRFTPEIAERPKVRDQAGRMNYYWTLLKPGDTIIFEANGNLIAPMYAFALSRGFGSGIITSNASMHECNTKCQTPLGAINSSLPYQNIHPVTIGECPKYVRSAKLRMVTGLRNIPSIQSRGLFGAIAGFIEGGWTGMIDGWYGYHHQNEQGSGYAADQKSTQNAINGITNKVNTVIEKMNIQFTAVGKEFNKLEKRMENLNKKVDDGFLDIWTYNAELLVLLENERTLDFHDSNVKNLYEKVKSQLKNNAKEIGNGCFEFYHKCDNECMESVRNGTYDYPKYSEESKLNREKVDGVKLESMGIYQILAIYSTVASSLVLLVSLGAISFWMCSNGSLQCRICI
# Target sequence in this assay (P40337 whole entry, looked up): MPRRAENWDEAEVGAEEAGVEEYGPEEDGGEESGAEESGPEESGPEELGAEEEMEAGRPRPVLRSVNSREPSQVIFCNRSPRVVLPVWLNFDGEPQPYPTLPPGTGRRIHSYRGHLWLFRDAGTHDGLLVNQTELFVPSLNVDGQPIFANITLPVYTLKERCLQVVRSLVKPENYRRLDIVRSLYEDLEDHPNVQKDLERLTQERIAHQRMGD
# [2] = target: T1, von Hippel-Lindau disease tumor suppressor/Hemagglutinin; assay: Protac activity at VHL (unknown origin)/influenza A hemagglutinin transfected in HEK293T cells assessed as degradation of hemagglutinin incubated for 12 hrs by Western blot analysis; type: cell-based; conditions: dose 0.39-25 µM, DDE = dose-dependent effect
# Target sequence in this assay (P03452 whole entry, looked up): as the sequence (P03452 whole entry, looked up) above
# Target sequence in this assay (P40337 whole entry, looked up): as the sequence (P40337 whole entry, looked up) above
# [3] = target: T1, von Hippel-Lindau disease tumor suppressor/Hemagglutinin; assay: Protac activity at VHL (unknown origin)/influenza A hemagglutinin transfected in HEK293T cells assessed as degradation of hemagglutinin incubated for 24 hrs by Western blot analysis; type: cell-based; conditions: dose 0.03-33.3 µM, DDE = dose-dependent effect
# Target sequence in this assay (P03452 whole entry, looked up): as the sequence (P03452 whole entry, looked up) above
# Target sequence in this assay (P40337 whole entry, looked up): as the sequence (P40337 whole entry, looked up) above
# [4] = AUCinfinity in BALB/c mouse infected with Influenza A A/WSN/33 (H1N1) virus at 50 mg/kg, po measured after 24 hrs by LC-MS analysis; type: ADME, organism-based; design: time 24 hrs, dose 50 mg/kg, route po; conditions: in vivo
# [5] = Tmax in BALB/c mouse infected with Influenza A A/WSN/33 (H1N1) virus at 50 mg/kg, po administered as single dose measured after 24 hrs by LC-MS analysis; type: ADME, organism-based; conditions: in vivo
# Influenza A virus [6] = assay: Antiviral activity against Influenza A A/WSN/33 (H1N1) infected in HEK293T cells incubated for 12 hrs; type: functional, organism-based; conditions: HEK-293T
# [7] = MRT in BALB/c mouse infected with Influenza A A/WSN/33 (H1N1) virus at 50 mg/kg, po measured after 24 hrs by LC-MS analysis; type: ADME, organism-based; conditions: in vivo
# [8] = target: von Hippel-Lindau disease tumor suppressor (Homo sapiens, UniProt P40337); assay: Binding affinity to human recombinant VHL assessed as dissociation constant by SPR assay
# [9] = target: T1, von Hippel-Lindau disease tumor suppressor/Hemagglutinin; assay: Protac activity at VHL (unknown origin)/influenza A hemagglutinin transfected in HEK293T cells assessed as degradation of hemagglutinin incubated for 10 hrs by Western blot analysis; type: cell-based
# Influenza B virus = assay: Antiviral activity against Influenza B B/Florida/4/2006 infected in HEK293T cells incubated for 12 hrs; type: functional, organism-based; conditions: B/Florida/4/2006, HEK-293T
# [10] = target: T1, von Hippel-Lindau disease tumor suppressor/Hemagglutinin; assay: Protac activity at VHL (unknown origin)/influenza A hemagglutinin transfected in HEK293T cells assessed as accumulation of ubiquitinated hemagglutinin at 20 uM preincubated for 4 hrs followed by proteosome inhibitor, MG-132 addition and measured after 4 hrs by Immunoprecipitation analysis; type: cell-based
# Target sequence in this assay (P03452 whole entry, looked up): as the sequence (P03452 whole entry, looked up) above
# Target sequence in this assay (P40337 whole entry, looked up): as the sequence (P40337 whole entry, looked up) above
# [11] = target: T1, von Hippel-Lindau disease tumor suppressor/Hemagglutinin; assay: Protac activity at VHL (unknown origin)/influenza A hemagglutinin transfected in HEK293T cells assessed as degradation of hemagglutinin incubated for 7 to 10 hrs by Western blot analysis; type: cell-based; conditions: time 7-10 hrs
# Target sequence in this assay (P03452 whole entry, looked up): as the sequence (P03452 whole entry, looked up) above
# Target sequence in this assay (P40337 whole entry, looked up): as the sequence (P40337 whole entry, looked up) above
# [12] = Elimination half life in BALB/c mouse infected with Influenza A A/WSN/33 (H1N1) virus at 50 mg/kg, po measured after 24 hrs by LC-MS analysis; type: ADME, organism-based; conditions: in vivo, read-out: LambdaZ (converted)
# [13] = Cmax in BALB/c mouse infected with Influenza A A/WSN/33 (H1N1) virus at 50 mg/kg, po measured after 24 hrs by LC-MS analysis; type: ADME, organism-based; design: time 24 hrs, dose 50 mg/kg, route po; conditions: in vivo
# [14] = Acute toxicity in BALB/c mouse infected with Influenza A A/WSN/33 (H1N1) virus assessed as mortality at 10 to 20 mg/kg/day, iv administered for 5 days starting from 2 hrs post infection and measured daily for 14 days; type: organism-based; conditions: in vivo, 336 h, dose 10-20 mg/kg/day, time 14 day
# [15] = Oral bioavailability in BALB/c mouse infected with Influenza A A/WSN/33 (H1N1) virus at 50 mg/kg measured after 24 hrs by LC-MS analysis; type: ADME, organism-based; conditions: in vivo
# [16] = AUCinfinity in BALB/c mouse infected with Influenza A A/WSN/33 (H1N1) virus at 10 mg/kg, iv measured after 24 hrs by LC-MS analysis; type: ADME, organism-based; design: dose 10 mg/kg, time 24 hrs, route iv; conditions: in vivo
# [17] = Cytotoxicity against HEK293T cells assessed as cell viability at 50 uM incubated for 36 hrs by Celltiter-Glo assay relative to control; type: toxicity, cell-based, HEK-293T; conditions: human, read-out: Activity
# Influenza A virus [18] = assay: Antiviral activity against Influenza A A/WSN/33 (H1N1) infected in BALB/c mouse assessed as fold reduction plaque count at 10 to 20 mg/kg/day, iv incubated for 4 to 16 days relative to control; type: functional; conditions: dose 10-20 mg/kg/day, time 4-16 day
# [19] = Acute toxicity in BALB/c mouse infected with Influenza A A/WSN/33 (H1N1) virus assessed as decrease in body weight at 10 to 20 mg/kg/day, iv administered for 5 days starting from 2 hrs post infection and measured daily for 14 days; type: organism-based; conditions: in vivo, 336 h, dose 10-20 mg/kg/day, time 14 day
# Influenza A virus [20] = assay: Antiviral activity against Influenza A A/Aichi/2/68 (H3N2) infected in HEK293T cells incubated for 12 hrs; type: functional, organism-based; conditions: HEK-293T
# Hemagglutinin = Hemagglutinin (Influenza A virus, UniProt B4URE7); assay: Binding affinity to recombinant influenza A hemagglutinin assessed as dissociation constant by SPR assay
# Influenza A virus [21] = assay: Antiviral activity against Influenza A A/California/08/2009 (H1N1) infected in HEK293T cells incubated for 12 hrs; type: functional, organism-based; conditions: HEK-293T
# [22] = Elimination half life in BALB/c mouse infected with Influenza A A/WSN/33 (H1N1) virus at 10 mg/kg, iv measured after 24 hrs by LC-MS analysis; type: ADME, organism-based; conditions: in vivo, read-out: LambdaZ (converted)
# Influenza A virus [23] = assay: Antiviral activity against influenza A A/WSN/33 (H1N1) infected in HEK293T cells assessed as reduction in hemagglutinin level at virion replication and release stage at 25 uM mesured after 3 to 9 hrs by immunofluorescence based confocal microscopic analysis; type: functional, organism-based; conditions: time 3-9 hrs
# Influenza A virus [24] = assay: Antiviral activity against Influenza A A/WSN/33 (H1N1) infected in BALB/c mouse assessed as reduction in virus induced inflammation at 10 mg/kg, iv measured on day 4 by histopathological staining based analysis; type: functional, organism-based; conditions: time 4.0 day
# HEK-293T = assay: Cytotoxicity against HEK293T cells assessed as reduction in cell viability at 50 uM incubated for 36 hrs by Celltiter-Glo assay; type: toxicity, cell-based; conditions: human
# Influenza A virus [25] = assay: Antiviral activity against Influenza A A/WSN/33 (H1N1) infected in BALB/c mouse assessed as recovery of body weight at 10 to 20 mg/kg/day, iv administered for 5 days starting from 2 hrs post infection and measured daily for 14 days; type: functional, organism-based; conditions: dose 10-20 mg/kg/day, time 14.0 day
# [26] = MRT in BALB/c mouse infected with Influenza A A/WSN/33 (H1N1) virus at 10 mg/kg, iv measured after 24 hrs by LC-MS analysis; type: ADME, organism-based; conditions: in vivo
# [27] = target: T1, von Hippel-Lindau disease tumor suppressor/Hemagglutinin; assay: Protac activity at VHL (unknown origin)/influenza A hemagglutinin transfected in HEK293T cells assessed as reduction in hemagglutinin level at 10 uM by immunoblotting analysis relative to control; type: cell-based; design: scale not given: the % may be the effect or the level left
# Target sequence in this assay (P03452 whole entry, looked up): as the sequence (P03452 whole entry, looked up) above
# Target sequence in this assay (P40337 whole entry, looked up): as the sequence (P40337 whole entry, looked up) above
# [28] = Cmax in BALB/c mouse infected with Influenza A A/WSN/33 (H1N1) virus at 10 mg/kg, iv measured after 24 hrs by LC-MS analysis; type: ADME, organism-based; design: time 24 hrs, dose 10 mg/kg, route iv; conditions: in vivo
# Influenza A virus [29] = assay: Antiviral activity against Influenza A A/WSN/33 (H1N1) infected in BALB/c mouse assessed as reduction in virus induced lung lesion at 10 mg/kg, iv measured on day 4 by histopathological staining based analysis; type: functional, organism-based; conditions: time 4.0 day
# Influenza A virus [30] = assay: Antiviral activity against Influenza A A/WSN/33 (H1N1) infected in BALB/c mouse assessed as plaque reduction at 10 to 20 mg/kg/day, iv incubated for 4 to 16 days (reference value: 2.7x10^6 PFU/g); type: functional; conditions: dose 10-20 mg/kg/day, time 4-16 day
# [31] = target: T1, von Hippel-Lindau disease tumor suppressor/Hemagglutinin; assay: Protac activity at VHL (unknown origin)/influenza A hemagglutinin transfected in HEK293T cells assessed as degradation of hemagglutinin at 0.39 to 25 uM incubated for 10 hrs by Western blot analysis; type: cell-based; conditions: dose 0.39-25 µM
# Influenza A virus [32] = assay: Antiviral activity against Influenza A A/WSN/33 (H1N1) infected in dog MDCK cells assessed as inhibition of viral induced cytopathic effect incubated for 40 hrs by CellTiter-Glo assay; type: functional, organism-based
# [33] = target: T2, Protein cereblon/Hemagglutinin (Influenza A virus) (UniProt B4URE7+Q96SW2); assay: Protac activity at CRBN (unknown origin)/Influenza A hemagglutinin transfected in HEK293T cells assessed as induction of hemagglutinin degradation at 50 uM incubated for 12 hrs by Western blot analysis relative to control; type: cell-based
# [34] = target: T2, Protein cereblon/Hemagglutinin (Influenza A virus); assay: Protac activity at CRBN (unknown origin)/Influenza A hemagglutinin transfected in HEK293T cells assessed as induction of hemagglutinin degradation at 0.78 uM incubated for 24 hrs by Western blot analysis relative to control; type: cell-based
# von Hippel-Lindau disease tumor suppressor, sequence (P40337 whole entry): as the sequence (P40337 whole entry, looked up) above
structure (smiles),measurement,setting,value
Cc1ncsc1-c1ccc(CNC(=O)[C@@H]2C[C@@H](O)CN2C(=O)[C@@H](NC(=O)CCOCCOCCNC(=O)[C@]23CCC(C)(C)C[C@H]2C2=CC[C@@H]4[C@@]5(C)CC[C@H](O)C(C)(C)[C@@H]5CC[C@@]4(C)[C@]2(C)CC3)C(C)(C)C)cc1,Activity,[1],50%
same,Activity,[2],Dde
same,Activity,[3],Dde
Cc1ncsc1-c1ccc(CNC(=O)[C@@H]2CCCN2C(=O)[C@@H](NC(=O)CCOCCOCCOCCNC(=O)[C@]23CCC(C)(C)C[C@H]2C2=CC[C@@H]4[C@@]5(C)CC[C@H](O)C(C)(C)[C@@H]5CC[C@@]4(C)[C@]2(C)CC3)C(C)(C)C)cc1,AUC(0-inf),[4],2550 ng·h/mL
same,Tmax,[5],0.5 h
same,EC50,Influenza A virus [6],4.53 µM
same,MRT,[7],1.56 h
same,Kd,[8],9.25 µM
same,DC50,[9],1.44 µM
same,EC50,Influenza B virus,> 25 µM
same,Activity,[10],Active
same,Activity,[11],Active
same,half-life,[12],2.63 h
same,Cmax,[13],2070 ng/mL
same,Activity,[14],Non-Toxic
same,bioavailability,[15],6.8%
same,AUC(0-inf),[16],7450 ng·h/mL
same,"viability at 36 h, 50 µM",[17],> 85%
same,fold change (FC),Influenza A virus [18],3.5
same,Activity,[19],Non-Toxic
same,EC50,Influenza A virus [20],8.98 µM
same,Activity,[1],50%
same,Kd,Hemagglutinin,3.18 µM
same,EC50,Influenza A virus [21],5.98 µM
same,half-life,[22],2.87 h
same,Activity,Influenza A virus [23],Active
same,Activity,Influenza A virus [24],Active
same,Activity,HEK-293T,85%
same,Activity,Influenza A virus [25],Active
same,Activity,[2],Dde
same,Activity,[3],Dde
same,MRT,[26],0.98 h
same,Activity,[27],60%
same,Cmax,[28],2070 ng/mL
same,Activity,Influenza A virus [29],Active
same,Activity,Influenza A virus [30],8.1 10^5PFU/g
Cc1ncsc1-c1ccc(CNC(=O)[C@@H]2C[C@@H](O)CN2C(=O)[C@@H](NC(=O)CCOCCOCCOCCOCCOCCOCCOCCNC(=O)[C@]23CCC(C)(C)C[C@H]2C2=CC[C@@H]4[C@@]5(C)CC[C@H](O)C(C)(C)[C@@H]5CC[C@@]4(C)[C@]2(C)CC3)C(C)(C)C)cc1,Activity,[9],Active
same,Activity,[31],Active
same,Activity,HEK-293T,Toxic
Cc1ncsc1-c1ccc(CNC(=O)[C@@H]2C[C@@H](O)CN2C(=O)[C@@H](NC(=O)CCOCCOCCOCCOCCOCCNC(=O)[C@]23CCC(C)(C)C[C@H]2C2=CC[C@@H]4[C@@]5(C)CC[C@H](O)C(C)(C)[C@@H]5CC[C@@]4(C)[C@]2(C)CC3)C(C)(C)C)cc1,Activity,HEK-293T,Toxic
Cc1ncsc1-c1ccc(CNC(=O)[C@@H]2CCCN2C(=O)[C@@H](N)C(C)(C)C)cc1,Kd,[8],4.97 µM
CC1(C)CC[C@]2(C(=O)O)CC[C@]3(C)C(=CC[C@@H]4[C@@]5(C)CC[C@H](O)C(C)(C)[C@@H]5CC[C@]43C)[C@@H]2C1 [OLEANOLIC_ACID],IC50,Influenza A virus [32],> 200 µM
same,Kd,Hemagglutinin,10.9 µM
Cc1ncsc1-c1ccc(CNC(=O)[C@@H]2C[C@@H](O)CN2C(=O)[C@@H](NC(=O)CCOCCNC(=O)[C@]23CCC(C)(C)C[C@H]2C2=CC[C@@H]4[C@@]5(C)CC[C@H](O)C(C)(C)[C@@H]5CC[C@@]4(C)[C@]2(C)CC3)C(C)(C)C)cc1,Activity,[1],50%
same,Activity,[2],Dde
same,Activity,[3],Dde
CC1(C)CC[C@]2(C(=O)NCCOCCOCCOCCNc3cccc4c3C(=O)N(C3CCC(=O)NC3=O)C4=O)CC[C@]3(C)C(=CC[C@@H]4[C@@]5(C)CC[C@H](O)C(C)(C)[C@@H]5CC[C@]43C)[C@@H]2C1 (some centres undefined),Activity,[33],20%
same,Activity,[34],> 50%
Cc1ncsc1-c1ccc(CNC(=O)[C@@H]2C[C@@H](O)CN2C(=O)[C@@H](NC(=O)CCOCCOCCOCCOCCOCCOCCOCCOCCOCCOCCNC(=O)[C@]23CCC(C)(C)C[C@H]2C2=CC[C@@H]4[C@@]5(C)CC[C@H](O)C(C)(C)[C@@H]5CC[C@@]4(C)[C@]2(C)CC3)C(C)(C)C)cc1,Activity,HEK-293T,Toxic
